# How the values were obtained:
# LpxC from P. aeruginosa = LpxC from P. aeruginosa (Pseudomonas aeruginosa, UniProt P47205); conditions: cited from earlier work
# E. coli LpxC enzyme = E. coli LpxC enzyme (Escherichia coli, UniProt P0A725); conditions: cited from earlier work
# [1] = tested on: EnvA1 mutant protein (LpxC, His 19 replaced by Serine); conditions: His 19 replaced by a Serine; cited from earlier work
# E. coli DH5α = assay: Growth curves with inhibitor, E. coli; assay type: cell-based
# Protocol: (§3) Growth curves. Bacterial cultures were prepared by diluting stationary phase overnight cultures to an OD600 of 0.1 in 5 ml of LB. The inhibitor, L-161,240, was resuspended in DMSO to a final concentration of 10 mg/ml and added to the bacterial cultures to a final concentration of 50 μg/ml or 10 μg/ml. In the samples without inhibitor, DMSO was added to keep the final concentration of DMSO equivalent between samples. The cultures were incubated with shaking and 0.8 ml was taken for OD600 readings over the course of the experiment.
# P. aeruginosa PA01 [2] = assay: Growth curves with inhibitor, P. aeruginosa wild type; assay type: cell-based
# Protocol: as §3
# [3] = tested on: P. aeruginosa PAO 200 (MexAB-OprM efflux mutant); assay: Growth curves with inhibitor, efflux pump mutant; assay type: cell-based; conditions: FIG. 4
# Source text: L-161, 240 is a substrate for the major drug efflux pump of P. aeruginosa. […] However the only one that is constitutively expressed to a high degree in the wild type strains is MexAB-OprM (Kohler, T., M. Michea-Hamzehpour, and U. Henze. 1997. Characterization of MexE-MexF-OprN, a positively regulated multidrug efflux system of Pseudomonas aeruginosa. Mol. Microbiol. 23: 345-354). Therefore, mutants of this efflux system can be used to evaluate the consequences of diminished efflux pump activity. These mutants would be expected to be highly sensitive to a number of antibiotics.
# [4] = tested on: E. coli JBK-1 carrying lpxC from E. coli; assay: Growth at 42° C. of E. coli JBK-1 carrying the lpxC copy from E. coli; assay type: cell-based; conditions: data not shown
# Protocol: (§1) Growth curves. Bacterial cultures were prepared by diluting stationary phase overnight cultures to an OD600 of 0.1 in 5 ml of LB. […] The cultures were incubated with shaking and 0.8 ml was taken for OD600 readings over the course of the experiment. DH5α, PA01, and PA0200 (Schweizer, H. P. 1998. Intrinsic resistance to inhibitors of fatty acid biosynthesis in Pseudomonas aeruginosa is due to efflux: application of a novel technique for generation of unmarked chromosomal mutations for the study of efflux systems. Antimicrob. Agents Chemother. 42: 394-398) were all grown at 37° C. In the cases where temperature sensitive JBK strains were being assayed, the cultures were grown at 42° C. for both the overnight and the time course cultures.
# (§2) The E. coli strain JBK-1/pKD6 contains the chromosomal lpxC gene disrupted with a kan element and a wild type copy of E. coli lpxC on the temperature-sensitive replicon pKD6. The strain was constructed as described by Sorensen et al., 1996. Since lpxC is essential for growth, this strain is not viable at 42° C. because the functional copy is on the temperature sensitive replicon.
# [5] = tested on: E. coli JBK-1 carrying lpxC from P. aeruginosa
# Protocol: as §1, §2
# [6] = tested on: 'promoter swapped' P. aeruginosa lpxC mutants; assay: MIC determinations for 'promoter swapped' mutants; assay type: cell-based
# Protocol: MIC determinations for ‘promoter swapped’ mutants. Single colonies of DH5α, PA01 and each promoter swap strain were picked and grown in LB at 37° C. with shaking for approximately 4 hours. Assuming that an OD600 reading of 1.0 is equivalent to 10^9 cells/ml, dilutions were made of all cultures to 5×10^5 cells/ml. 200 μl of each diluted culture was added to each well where a two-fold serial dilution of inhibitor had been placed. The 96-well plates were incubated at 37° C. overnight and their OD600 determined using the Spectramax Plus (Molecular Devices) plate reader.
# To confirm the effect of the arabinose-sensitive promoter in regulating the lpxC expression in the swapped mutants, MIC determinations were performed as above, except that arabinose was added to induce expression of the chromosomal locus and override the effects of the plasmid borne lpxC. In this case the stationary-phase overnight bacterial culture was diluted to 5×10^5 cells/ml in LB containing Arabinose to a final concentration of 0.2% (a 20% stock made up in water).
# Using the ‘promoter swap’ technique as described in the methods, it was possible to replace expression from the wild type chromosomal copy of P. aeruginosa lpxC, with expression solely from a plasmid borne copy. […]
# E. coli [7] = conditions: cited from earlier work
# P. aeruginosa PA01 [8] = tested on: P. aeruginosa PA01
# Protocol: Polymixin B nonapeptide (Sigma) was prepared as a suspension in DMSO at 3 mg/ml final concentration. Erythromycin and Tetracycline were resuspended in DMSO to a final concentration of 250 mg/ml and 125 mg/ml, respectively. L-161,240 was prepared as above in DMSO to a final concentration of 10 mg/ml. These DMSO antibiotic solutions were individually added to LB to the appropriate final concentration and mixed. Polymixin B nonapeptide was then added to the appropriate samples and mixed. DMSO was added to each sample to keep the final concentration of DMSO equivalent between samples. A stationary phase overnight culture of PA01 was added to each sample to bring the final concentration to 0.1 OD600. Samples were removed for OD600 determinations every 1-2 hours for 6.5 hours and the data from these time points were plotted.
# In order to determine the effect of outer membrane exclusion of L-161,240, we exposed P. aeruginosa to PMBN in combination with L-161,240, and with other lipophilic antibiotics as positive controls.
# E. coli [9] = conditions: lethal intraperitoneal dose of E. coli; cited from earlier work
# P. aeruginosa = conditions: cited from earlier work
# Sequence of LpxC from P. aeruginosa (P47205 whole entry): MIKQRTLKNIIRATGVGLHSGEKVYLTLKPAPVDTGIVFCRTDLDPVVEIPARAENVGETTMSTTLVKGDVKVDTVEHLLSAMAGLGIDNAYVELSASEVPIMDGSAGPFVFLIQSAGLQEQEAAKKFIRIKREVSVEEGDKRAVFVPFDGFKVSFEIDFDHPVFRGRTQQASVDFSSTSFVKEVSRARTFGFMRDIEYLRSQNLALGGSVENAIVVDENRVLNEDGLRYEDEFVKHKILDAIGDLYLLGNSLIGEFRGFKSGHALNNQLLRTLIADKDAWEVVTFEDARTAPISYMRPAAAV
# Sequence of E. coli LpxC enzyme (P0A725 whole entry): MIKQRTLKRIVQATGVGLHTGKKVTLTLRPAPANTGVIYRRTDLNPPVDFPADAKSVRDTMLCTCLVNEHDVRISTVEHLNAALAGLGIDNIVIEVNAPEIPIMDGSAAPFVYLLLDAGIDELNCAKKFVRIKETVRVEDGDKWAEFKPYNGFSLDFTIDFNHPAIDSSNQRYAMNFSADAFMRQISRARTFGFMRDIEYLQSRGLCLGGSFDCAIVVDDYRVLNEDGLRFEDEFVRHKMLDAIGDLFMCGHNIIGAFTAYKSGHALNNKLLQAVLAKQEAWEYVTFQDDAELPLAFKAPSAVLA
compound,measurement,setting,value
O=C(O)CN(CCN(CC(=O)O)CC(=O)O)CC(=O)O [EDTA],EDTA concentration significantly inhibiting P. aeruginosa LpxC enzyme,LpxC from P. aeruginosa,≤ 2 µM
same,sensitivity of E. coli LpxC enzyme to EDTA,E. coli LpxC enzyme,not sensitive
same,sensitivity of envA1 mutant LpxC to EDTA,[1],sensitive
"CCCc1cc(C2=N[C@@H](C(=O)NO)CO2)cc(OC)c1OC [L-161,240]",prevention of growth of E. coli,E. coli DH5α,effective in preventing growth
same,prevention of growth of P. aeruginosa,P. aeruginosa PA01 [2],completely ineffective
same,sensitivity of efflux mutant PAO 200 compared with wild type,[3],not more sensitive
same,sensitivity of JBK-1 carrying E. coli lpxC to killing,[4],still sensitive to killing by a slightly higher concentration
same,inhibitor concentration to which JBK-1 carrying P. aeruginosa lpxC is resistant,"[5]; 42° C., data not shown",> 50 µg/mL
same,resistance level relative to the MIC of the wild type organisms,[5]; JBK-1 carrying P. aeruginosa lpxC,about 50 times
same,sensitivity of all promoter swap transformants with chromosomal lpxC induced,"[6]; LB containing 0.2% arabinose, vector with E. coli or P. aeruginosa lpxC",resistant to killing
same,sensitivity of P. aeruginosa expressing only E. coli LpxC versus wild type / P. aeruginosa enzyme,"[6]; promoter swap, native lpxC shut off, plasmid-borne E. coli lpxC, no arabinose",much more sensitive
same,minimal inhibitory concentration against E. coli,E. coli [7],about 1 microgram per milliliter
same,sensitivity of P. aeruginosa in combination with PMBN,P. aeruginosa PA01 [8],remained unchanged
same,outcome in mice infected with lethal dose of E. coli,E. coli [9],cured
same,inhibition of LpxC from P. aeruginosa,LpxC from P. aeruginosa,"only at very high concentrations, and even then it did so poorly"
same,effect on bacterial growth of P. aeruginosa,P. aeruginosa,no effect on bacterial growth
CN(C)[C@@H]1C(O)=C(C(N)=O)C(=O)[C@@]2(O)C(O)=C3C(=O)c4c(O)cccc4[C@@](C)(O)[C@H]3C[C@@H]12 [tetracycline],lowering of MIC for P. aeruginosa by PMBN,P. aeruginosa PA01 [8],more than 16 fold

# Reference: patent US7629141B2, “Essential and important genes of Pseudomonas aeruginosa and the use thereof to design or identify antibacterial agents” (priority 2001, dated 2009)
